Drawing on ChEMBL document CHEMBL3046671, “Molecular design, synthesis and biological activities of amidines as new ketol-acid reductoisomerase inhibitors” (Chin Chem Lett, 2008), this text covers inhibition and Ki for 16 molecules.

SMILES strings stand for the structures. Where a name gives a salt, the structure may show the parent alone. Active and inactive are the calls of the source. The calls are words filed in the database; no cut-off is given here.

For experiment [1], the system named is Brassica napus. Briefly: Herbicidal activity against Brassica napus (oilseed rape) assessed as inhibition at 100 ug/ml by rape toot test. Type of experiment: functional.
Experiment [2] relates to Echinochloa crus-galli. The experiment can be described thus: Herbicidal activity against Echinochloa crus-galli (barnyard grass) assessed as inhibition at 100 ug/ml by barnyardgrass cup test. Type of experiment: functional.
Experiment [3] has as its system Echinochloa crus-galli. Briefly: Herbicidal activity against Echinochloa crus-galli (barnyard grass) assessed as inhibition at 10 ug/ml by barnyardgrass cup test. The experiment is classed as functional.
Experiment [4] has as its system Brassica napus. The experiment can be described thus: Herbicidal activity against Brassica napus (oilseed rape) assessed as inhibition at 10 ug/ml by rape toot test. The experiment is classed as functional.
Experiment [5] has as its target Ketol-acid reductoisomerase, chloroplastic (Oryza sativa subsp. japonica, UniProt Q65XK0). Briefly: Inhibition of Oryza sativa KARI (rice).
The target of experiment [6] is T1, Ketol-acid reductoisomerase (NADP(+)) (Escherichia coli (strain K12), UniProt P05793).
T1 sequence (P05793 whole entry): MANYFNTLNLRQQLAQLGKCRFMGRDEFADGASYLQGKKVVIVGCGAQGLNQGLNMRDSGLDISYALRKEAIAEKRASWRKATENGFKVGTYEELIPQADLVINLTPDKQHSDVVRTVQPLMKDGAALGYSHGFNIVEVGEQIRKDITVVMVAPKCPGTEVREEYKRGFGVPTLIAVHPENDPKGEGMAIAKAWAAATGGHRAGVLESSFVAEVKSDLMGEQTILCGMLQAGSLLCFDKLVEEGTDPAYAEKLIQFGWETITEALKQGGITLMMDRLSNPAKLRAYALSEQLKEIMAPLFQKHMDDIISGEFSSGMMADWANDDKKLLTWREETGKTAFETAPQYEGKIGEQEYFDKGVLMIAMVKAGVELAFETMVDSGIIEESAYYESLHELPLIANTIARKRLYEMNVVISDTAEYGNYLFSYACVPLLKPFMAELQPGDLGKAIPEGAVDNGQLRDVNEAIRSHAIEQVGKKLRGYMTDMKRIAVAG
The experiment can be described thus: Inhibition of Escherichia coli KARI.

Chain of Ketol-acid reductoisomerase, chloroplastic (Q65XK0 whole entry): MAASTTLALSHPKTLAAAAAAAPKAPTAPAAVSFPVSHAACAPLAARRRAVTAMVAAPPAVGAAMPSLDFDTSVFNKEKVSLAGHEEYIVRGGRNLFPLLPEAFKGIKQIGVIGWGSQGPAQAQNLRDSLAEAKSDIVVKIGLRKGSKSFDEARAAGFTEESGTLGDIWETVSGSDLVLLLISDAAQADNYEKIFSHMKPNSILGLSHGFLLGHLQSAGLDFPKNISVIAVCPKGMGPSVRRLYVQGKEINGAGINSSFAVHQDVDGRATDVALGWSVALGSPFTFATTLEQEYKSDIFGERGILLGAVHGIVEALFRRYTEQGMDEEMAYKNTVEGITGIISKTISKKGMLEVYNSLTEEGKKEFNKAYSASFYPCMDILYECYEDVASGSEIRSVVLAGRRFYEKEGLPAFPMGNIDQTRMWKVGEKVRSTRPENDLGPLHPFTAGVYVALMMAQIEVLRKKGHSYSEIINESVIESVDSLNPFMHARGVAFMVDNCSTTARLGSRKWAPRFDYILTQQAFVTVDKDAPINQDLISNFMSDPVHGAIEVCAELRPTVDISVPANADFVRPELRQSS

For the molecule `CCCCCCOc1ccc(C(=N)N)cc1` [4-(HEXYLOXY)BENZIMIDAMIDE HYDROCHLORIDE], the inhibition at 100 µg/mL amounted to 94% in the experiment on Brassica napus [1] and 52.1% in the experiment on Echinochloa crus-galli [2]. Also, the inhibition at 10 µg/mL in the experiment on Echinochloa crus-galli [3] came out at 5.3%; in the experiment with Brassica napus [4], 20.4%. Also, in experiment [5], the Ki stood at 190 µM.

On to `N=C(N)c1ccc(OCc2ccc(Cl)cc2Cl)cc1`, for which the inhibition at 100 µg/mL in the experiment with Brassica napus [1] came out at 95.6%; in the experiment with Echinochloa crus-galli [2] it was 62.8%. The inhibition at 10 µg/mL with Echinochloa crus-galli [3] came out at 21.8%; in the experiment with Brassica napus [4] it was 33.7%. In experiment [5], this molecule returned an inhibitory constant (Ki) of 142 µM.

The molecule `CCCCOc1ccc(C(=N)N)cc1` [4-BUTOXYBENZIMIDAMIDE HYDROCHLORIDE] returned a Ki in experiment [5] of 3530 µM.

With `N=C(N)c1ccc(OCCCCCOc2ccc(C(=N)N)cc2)cc1` [PENTAMIDINE ISETHIONATE], the inhibition at 100 µg/mL stood at 90.9% in the experiment with Brassica napus [1] and 59.6% in the experiment with Echinochloa crus-galli [2]. Besides, the Ki came out at 382 µM in experiment [6] and 350 µM in experiment [5]. Further, the inhibition at 10 µg/mL in the experiment on Echinochloa crus-galli [3] was determined as 12.6%; in the experiment on Brassica napus [4], 22.9%.

Take `CC(C)Oc1ccc(C(=N)N)cc1` [4-ISOPROPOXYBENZIMIDAMIDE HYDROCHLORIDE]: the Ki in experiment [5] is over 1670 µM.

In experiment [5], `C=CCOc1ccc(C(=N)N)cc1` [4-(ALLYLOXY)BENZIMIDAMIDE HYDROCHLORIDE] had a Ki of over 1710 µM.

Turning to `CCCCCCCOc1ccc(C(=N)N)cc1` [4-(HEPTYLOXY)BENZIMIDAMIDE HYDROCHLORIDE], the inhibition at 100 µg/mL was 96.3% in the experiment with Brassica napus [1] and 53% in the experiment with Echinochloa crus-galli [2]. In addition, the values for the inhibition at 10 µg/mL in the experiment with Echinochloa crus-galli [3] and with Brassica napus [4] were 20.1% and 30.1%, respectively. The Ki in experiment [5] stood at 61 µM.

In the case of `CCOc1ccc(C(=N)N)cc1` [4-ETHOXYBENZIMIDAMIDE HYDROCHLORIDE], the inhibition at 100 µg/mL in the experiment on Brassica napus [1] is 57.1%; in the experiment on Echinochloa crus-galli [2], 24.4%. Besides, the inhibition entry in the experiment with Echinochloa crus-galli [3] was “inactive”. For the same molecule, the inhibition at 10 µg/mL with Brassica napus [4] is 18.5%. Also, in experiment [5], the Ki was over 1900 µM.

Consider `CCCOc1ccc(C(=N)N)cc1` [4-PROPOXYBENZIMIDAMIDE HYDROCHLORIDE], for which the Ki in experiment [5] is over 1670 µM.

Molecule `N=C(N)c1ccc(OCc2ccccc2F)cc1` displayed an inhibitory constant (Ki) in experiment [5] of 965 µM.

`N=C(N)c1ccc(OCc2ccccc2)cc1` [4-(BENZYLOXY)BENZIMIDAMIDE HYDROCHLORIDE] showed an inhibition constant (Ki) in experiment [5] of over 1380 µM.

In turn, `CCCCCOc1ccc(C(=N)N)cc1` [4-(PENTYLOXY)BENZIMIDAMIDE HYDROCHLORIDE] came in with an inhibition constant Ki in experiment [5] of 1360 µM.

On to `N=C(N)c1ccc(OCc2ccccn2)cc1`, for which the Ki in experiment [5] was over 649 µM.

Take `N=C(N)c1ccc(OCc2cccc(Cl)c2)cc1`: the inhibition at 100 µg/mL with Brassica napus [1] is 95.2%; in the experiment on Echinochloa crus-galli [2] it was 56.8%. Also, the values for the inhibition at 10 µg/mL with Echinochloa crus-galli [3] and in the experiment with Brassica napus [4] were 21.5% and 31.9%, respectively. Further, the Ki in experiment [5] was determined as 213 µM.

Take `COc1ccc(C(=N)N)cc1` [4-METHOXYBENZIMIDAMIDE HYDROCHLORIDE]: the figures for the inhibition at 100 µg/mL with Brassica napus [1] and in the experiment with Echinochloa crus-galli [2] were 48.5% and 18.3%, respectively. In addition, the values for the inhibition at 10 µg/mL in the experiment with Echinochloa crus-galli [3] and in the experiment on Brassica napus [4] were 16.2% and 6.9%, respectively. This molecule came in with a Ki in experiment [5] of over 2080 µM.

In experiment [5], `N=C(N)c1ccc(OCc2ccc(Cl)cc2)cc1` yielded a Ki of 411 µM.

By inhibition is commonly meant the relative decrease from the control value, in per cent. One may read the Ki as a dissociation constant, usually derived from enzyme kinetics or from competition with a known ligand. A low value points to higher affinity.
